Series [1] can be described thus: Metabolic stability with human liver microsomes. Type of series: in vitro ADME. Conditions: pH 7.6; pooled human liver microsomes, 37° C., 1 μM test compound, 1 mg/ml protein, NADPH; read-out: In vitro stability in human liver microsome incubations t½. The method, then:
Determination of Metabolic Stability with Human Liver Microsomes
The metabolic degradation of the test compound is assayed at 37° C. with pooled human liver microsomes. The final incubation volume of 100 μl per time point contains TRIS buffer pH 7.6 (0.1 M), magnesium chloride (5 mM), microsomal protein (1 mg/ml) and the test compound at a final concentration of 1 μM. Following a short preincubation period at 37° C., the reactions are initiated by addition of beta-nicotinamide adenine dinucleotide phosphate, reduced form (NADPH, 1 mM) and terminated by transferring an aliquot into acetonitrile after different time points. Additionally, the NADPH-independent degradation is monitored in incubations without NADPH, terminated at the last time point. The [%] remaining test compound after NADPH independent incubation is reflected by the parameter c(control) (metabolic stability). The quenched incubations are pelleted by centrifugation (10,000 g, 5 min). An aliquot of the supernatant is assayed by LC-MS/MS for the amount of parent compound.
The half-life (t½ INVITRO) is determined by the slope of the semilogarithmic plot of the concentration-time profile. The intrinsic clearance (CL_[…]) is calculated by considering the amount of protein in the incubation: CL_[…][μl/min/mg protein]=(ln 2/(half-life[min]*protein content[mg/ml]))*1,000.

A further series concerns the target recombinant human DPPI (Homo sapiens (Human), UniProt P53634). Nature of the series: Inhibition of Human DPPI (Cathepsin C). Type of series: biochemical. Conditions: substrate Gly-Arg-AMC, 30 min room temperature. An excerpt: Inhibition of Human DPPI (Cathepsin C)
Materials: Microtiterplates (Optiplate-384 F) were purchased from PerkinElmer (Prod. No. 6007270). The substrate Gly-Arg-AMC was from Biotrend (Prod.-No. 808756 Custom peptide). Bovine serum albumin (BSA; Prod. No. A3059) and Dithiothreitol (DTT; Prod. No D0632) were from Sigma. TagZyme buffer was from Riedel-de-Haen (Prod.-No. 04269), NaCl was from Merck (Prod.-No. 1.06404.1000) and morpholinoethane sulfonic acid (MES), was from Serva (Prod.-No. 29834). The DPP1 inhibitor Gly-Phe-DMK was purchased from MP Biomedicals (Prod.-No. 03DK00625). The recombinant human DPPI was purchased from Prozymex. All other materials were of highest grade commercially available.
The following buffers were used: MES buffer: 25 mM MES, 50 mM NaCl, 5 mM DTT, adjusted to pH 6.0, containing 0.1% BSA; TAGZyme Buffer: 20 mM NaH2PO4, 150 mM NaCl adjusted to pH 6.0 with HCl
The recombinant human DPPI was diluted in TAGZyme buffer to 1 U/ml (38.1 μg/ml, respectively), and then activated by mixing in a 1:2 ratio with a Cysteamine aqueous solution (2 mM) and incubating for 5 min at room temperature.
Five uL test compound (final concentration 0.1 nM to 100 μM) in aqua bidest (containing 4% DMSO, final DMSO concentration 1%) were mixed with 10 μL of DPPI in MES buffer (final concentration 0.0125 ng/μL) and incubated for 10 min. Then, 5 μL of substrate in MES buffer (final concentration 50 μM) were added. The microtiter plates were then incubated at room temperature for 30 min. Then, the reaction was stopped by adding 10 μL of Gly-Phe-DMK in MES-buffer (final concentration 1 μM). The fluorescence in the wells was determined using a Molecular Devices SpectraMax M5 Fluorescence Reader (Ex 360 nm, Em 460 nm) or an Envision Fluorescence Reader (Ex 355 nm, Em 460 nm).
Each assay microtiter plate contained wells with vehicle controls (1% DMSO in bidest+0.075% BSA) as reference for non-inhibited enzyme activity (100% Ctl; high values) and wells with inhibitor (Gly-Phe-DMK, in bidest+1% DMSO+0.075% BSA, final concentration 1 μM) as controls for background fluorescence (0% Ctl; low values).
The analysis of the data was performed by calculating the percentage of fluorescence in the presence of test compound in comparison to the fluorescence of the vehicle control after subtracting the background fluorescence using the following formula: (RFU(sample)−RFU(background))*100/(RFU(control)−RFU(background))
Data from these calculations were used to generate IC50 values for inhibition of DPPI, respectively.

The subject of series [2] is Neutrophil elastase activity in U937 cells. Briefly: Neutrophil elastase activity in U937 cytosolic lysate after incubation with test compound. Format: cell-based. Conditions: Homo sapiens, U-937, U937 cells incubated 48 hours with compound, read-out: Reduction of NE-activity in U937 cells IC50. On the procedure:
Determination of Neutrophil Elastase Activity in U937 Cytosolic Lysate Preparation after Incubation with Test Compound
Optiplate 384F were purchased from PerkinElmer (Prod. No. #6007270). 24well Nunclon cell culture plates (No. 142475) and 96well plates (No. 267245) were from Nunc. Dimethylsulfoxid (DMSO) was from Sigma (Prod. No. D8418). Nonidet-P40 (NP40) was from USBiological (Prod. No. N3500)
Substrate, specific for Neutrophil elastase, was from Bachem (MeOSuc-Ala-Ala-Pro-Val-AMC; Prod. No. I-1270).
Human neutrophil elastase was from Calbiochem (Prod. No. 324681)
Tris-buffer (100 mM Tris; 1M NaCL; pH 7.5)
Tris-buffer+HSA 0.1%; Human Serum Albumin from Calbiochem (Cat#. 126658)
Serine-protease buffer (20 mM Tris; 100 mM NaCL; pH 7.5)+0.1% HSA
Serine protease lysis buffer: 20 mM Tris-HCL; 100 mM NaCl pH 7.5; +0.2% Nonidet-P40;
PBS: phosphate buffered saline, without Ca and Mg, from Gibco
U937 from ECACC (Cat. No. 85011440) cultured in suspension at 37° C. and 5% CO2.
Cell density: 0.2-1 Mio. Cells/ml.
Medium: RPMI1640 GlutaMAX (No. 61870) with 10% FCS from Gibco
Cell Seeding and Treatment:
Compounds in 100% DMSO were diluted in Medium (—FCS) with 10% DMSO and further diluted according to the experiment planned.
20 μl of the compound solution was transferred in the respective wells of the 24 well plate and diluted with 2 ml cell suspension/well containing […] (final concentration of DMSO=0.1%). Compound dilution factor=100
Compounds (up to 7 concentrations) were tested in triplicates with 3 wells for the DMSO 0.1% control, incubatet for 48 hours without medium change at 37° C., 5% CO2 and 95% relative humidity.
Cell Harvesting and Cell Lysate:
Transfer the cell suspension in 2.2 ml Eppendorf cups. Separate cells from medium by centrifugation (400×g; 5 min; RT); discard the supernatant. Resuspend in 1 ml PBS; centrifugation (400×g; 5 min; RT); wash cells twice with PBS. Add 100 μl Serin lysis buffer (ice cold) to the cell pellet; resuspend the pellet and store on ice for 15 minutes. Remove debris by centrifugation at 15000×g for 10 min at 4° C. Transfer 80-100 μl lysate supernatant in 96well plate and store immediately at −80° C.
Neutrophil Elastase Activity Assay:
Frozen lysates were thawn at 37° C. for 10 minutes and stored on ice. Protein content was determined with Bradford protein assay. Lysates were diluted to 0.2-0.5 mg/ml protein in serine protease buffer+HSA.
Standard: NE ([…] stocksolution in Tris-buffer; stored at −80° C.) was diluted in Tris-buffer+HSA to 750 ng/ml, and further serially diluted 1:2 for the standard curve.
Buffer, blank, standard and lysate samples were transferred into 384 well plate
Blank: 5 μl Tris-buffer+10 μl Tris-buffer+HSA+5 μl Substrate
Standard: 5 μl Tris-buffer+10 μl NE (diff.conc.)+5 μl Substrate
Lysate: 5 μl Tris-buffer+10 μl Lysat+5 μl Substrate
The increase in fluorescence (Ex360 nm/Em 460 nm) is determined over 30 minutes with a Molecular Device Spectramax M5 Fluorescence Reader. Kinetic Reduction (Vmax units/sec); 4 vmax points. The amount of neutrophil elastase (ng/ml) is calculated using the standard curve and the Spectramax software. The result is interpolated to ng/mg lysate protein using excel formula functions. Percent inhibition in the compound-treated lysate samples is calculated relative to the DMSO-treated control-sample (100−(compound-sample*100)/control-sample)
IC50 is calculated using Graphpad Prism; nonlinear fitting (log(inhibitor) vs. response—Variable slope).

Bounds are passed on as bounds.

Sequence of recombinant human DPPI (P53634 231-394): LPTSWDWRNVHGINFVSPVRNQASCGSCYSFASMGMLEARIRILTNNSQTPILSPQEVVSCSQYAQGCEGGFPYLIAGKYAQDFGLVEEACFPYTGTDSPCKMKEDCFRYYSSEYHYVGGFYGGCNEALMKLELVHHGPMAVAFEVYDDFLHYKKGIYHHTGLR
Sequence of recombinant human DPPI (P53634 395-463): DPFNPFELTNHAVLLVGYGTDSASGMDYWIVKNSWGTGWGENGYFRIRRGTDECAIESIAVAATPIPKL
Sequence of recombinant human DPPI (P53634 25-134): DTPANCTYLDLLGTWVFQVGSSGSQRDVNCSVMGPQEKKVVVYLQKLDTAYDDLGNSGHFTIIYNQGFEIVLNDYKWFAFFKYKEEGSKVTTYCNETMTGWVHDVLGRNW

Regarding `N#C[C@H](Cc1ccc(-c2cnn(CC3CCOCC3)c2)cc1F)NC(=O)C12CCC(CC1)CN2` [Example 29], the half-life at 1 μM in series [1] is more than 2.17 h. The IC50 – broadly, the concentration that inhibits the measured activity by half – was 20.2 nM at recombinant human DPPI and 58 nM in series [2].
Turning to `CN(C)S(=O)(=O)c1cccc(-c2ccc(C[C@@H](C#N)NC(=O)C34CCC(CC3)CN4)c(F)c2)c1` [Example 30], the half-life at 1 μM in series [1] amounted to 0.417 h. The IC50 on recombinant human DPPI amounted to 6.7 nM.
`CS(=O)(=O)c1ccc(-c2ccc(C[C@@H](C#N)NC(=O)C34CCC(CC3)CN4)c(F)c2)cc1C#N` [Example 18]: in series [1], the half-life at 1 μM is more than 2.17 h. Also, the IC50 on recombinant human DPPI was found to be 15 nM; in series [2] it was 74 nM.
For the compound `CN1C(=O)Cc2ccc(-c3ccc(C[C@@H](C#N)NC(=O)C45CCOC(CCN4)C5)cc3)cc21` (stereo partly shown) [Example 9], the IC50 on recombinant human DPPI worked out at 228 nM.
As to `N#C[C@H](Cc1ccc(-c2cccc(C(N)=O)c2)cc1F)NC(=O)C12CCC(CC1)CN2` [Example 24], the half-life at 1 μM in series [1] is more than 2.17 h. Besides, the IC50 at recombinant human DPPI came to 11.2 nM; in series [2] it was 114 nM.
As to `CN1C(=O)Cc2ccc(-c3ccc(C[C@@H](C#N)NC(=O)[C@@]45CC[C@H](CN4)C5)cc3)cc21` [Example 8], on recombinant human DPPI, the IC50 is 221 nM.
As to `CS(=O)(=O)c1cc(-c2ccc(C[C@@H](C#N)NC(=O)[C@]34CCC[C@@H](CN3)C4)cc2)ccc1C#N` [Example 16], the half-maximal inhibitory concentration (IC50) at recombinant human DPPI was found to be 1220 nM.
The same measure, in the same setting: in the case of `CN1C(=O)C(C)(C)c2ccc(-c3ccc(C[C@@H](C#N)NC(=O)C45CCC(CC4)CN5)c(F)c3)cc21` [Example 25] it was 40.7 nM.
`CS(=O)(=O)c1cc(-c2ccc(C[C@@H](C#N)NC(=O)C34CCC(CC3)CN4)c(F)c2)ccc1C#N` [Example 1]: the half-life at 1 μM in series [1] is more than 2.17 h. In addition, the IC50 in series [2] is 64 nM.
As to `N#Cc1ccc(-c2ccc(C[C@@H](C#N)NC(=O)C34CCC(CC3)N4)cc2)cc1F` [Example 11], the half-life at 1 μM in series [1] was more than 2.17 h. Besides, the IC50 on recombinant human DPPI was 284 nM.
Take `CN1C(=O)Cc2ccc(-c3ccc(C[C@@H](C#N)NC(=O)[C@]45CC[C@@H](CN4)C5)cc3)cc21` [Example 7]: the IC50 on recombinant human DPPI was determined as 204 nM.
On the same count and under the same terms, the value for `CN1C(=O)Cc2ccc(-c3ccc(C[C@@H](C#N)NC(=O)[C@]45CCC[C@@H](CN4)C5)cc3)cc21` [Example 12] was 428 nM; that for `CS(=O)(=O)c1cc(-c2ccc(C[C@@H](C#N)NC(=O)[C@@]34CCO[C@@H](CN3)C4)cc2)ccc1C#N` [Example 6] was 202 nM; that for `CS(=O)(=O)c1cc(-c2ccc(C[C@@H](C#N)NC(=O)[C@]34CC[C@@H](CN3)C4)cc2)ccc1C#N` [Example 14] was 650 nM.
Still for that read-out and setting: in the case of `CS(=O)(=O)c1cc(-c2ccc(C[C@@H](C#N)NC(=O)[C@@]34CC[C@H](CN3)C4)cc2)ccc1C#N` [Example 10] it was 283 nM; in that of `CN1Cc2ccc(-c3ccc(C[C@@H](C#N)NC(=O)C45CCC(CC4)CN5)c(F)c3)cc2C1` [Example 19], 38.1 nM.

(Values after patent US8889708B2 (Boehringer Ingelheim International GmbH, priority 2013, dated 2014).)
